Experimental data reported in article PMC8004929, “Whole-Body Pharmacokinetics and Physiologically Based Pharmacokinetic Model for Monomethyl Auristatin E (MMAE)” (Journal of Clinical Medicine, 2021).
Square brackets hold non-standard residues; d marks the D form. Peptide text beside a SMILES is read from it. * marks the point of attachment. Dolaproine = CO[C@@H]([C@@H]1CCCN1)[C@@H](C)C(=O)O; Dil = CC[C@H](C)[C@H](NC)[C@@H](CC(=O)O)OC; X1 = C[C@@H](N*)[C@@H](O)c1ccccc1; NMeV = CN[C@H](C(=O)O)C(C)C

Assays:
[1] = PBPK model fitting and parameter estimation for MMAE; conditions: PBPK model estimate (CV%), mice, 0.1 mg/kg i.v.
Description: The PBPK model included 16 tissues and a tumor compartment, and all of them were connected via blood flow and arranged anatomically. The tissue compartments included blood, lung, heart, kidney, muscle, skin, liver, brain, adipose, thymus, bone, small intestine, large intestine, spleen, pancreas, and other (i.e., carcass). All the other tissues, except those mentioned, were lumped into the ‘other’ compartment. The arterial blood to each organ was delivered by the efferent blood supplied from the lung, which perfused to each organ and then converged into the blood compartment, which represents the venous pool. Venous blood returned from the small intestine, large intestine, spleen, and pancreas were delivered to the liver. For the intestines, spleen, and pancreas, blood was delivered to the liver via the hepatic portal vein and mixed with liver artery blood after leaving the tissues. The delivery of the blood from the blood compartment to the lung completed the circulation of the flow. Based on in vitro, preclinical, and clinical data, the elimination of MMAE was assumed to be predominantly through the CYP3A4/5-mediated metabolic pathway and biliary/fecal excretion. Limited renal excretion (<10%) of MMAE has been reported. Therefore, we assumed that MMAE was eliminated solely via hepatic clearance (CL) from the liver interstitial space.
Each tissue compartment was further divided into the vascular, endothelial cell, interstitial, and cellular sub-compartments, and vascular space was divided into plasma and blood cells, as shown in Figure 1b. We aimed to make the sub-compartment division the same as our previously published platform antibody PBPK model, and thus, one can easily connect MMAE and an antibody PBPK model to build an ADC PBPK model. The rapid distribution of MMAE between plasma, endothelial cells, and interstitial space was assumed, and thus, the distribution rate between these compartments was set as a value 1000 times higher than the value of blood flow in each tissue. […] The partitioning of MMAE to the blood cells or cellular space was characterized using the KP values. The calculated KP values were adjusted for the ratios of cellular space volume to total tissue volume by dividing KP values with the ratio in each tissue. […] Only free MMAE was assumed to diffuse through the cellular membrane, and thus, the fraction of unbound drug in blood cells or tissue cellular space ( fu,t ) was calculated using Equation (2). (2) fu,t=fu,p/KP,i,
Equations (3) and (4) describe blood cell and plasma concentrations of MMAE, respectively. Equations that described MMAE concentration in the liver (Equations (5)–(9)), lung (Equations (10)–(14)), a typical tissue (Equations (15)–(19)), and tumor (Equations (20)–(23)) are provided below. In these equations, Qplasmai and QBClung are plasma flow and blood cell flow to the tissue i. Vplasma and VBC are volumes of central plasma and blood cell compartments. Vplasmai , VBCi , Vendoi , VISi , and Vcellulari are volumes of vascular, blood cell, endosomal, interstitial, and cellular compartments for tissue i. Cplasma and CBC are MMAE concentration in systemic plasma and blood cell compartments. Cplasmai , CBCi , Cendoi , CISi , and Ccellulari are MMAE concentration in vascular, blood cell, endosomal, interstitial, and cellular compartments of tissue i. PSBC is the permeability coefficient for the blood cell sub-compartment.
Physiological parameters for mice were obtained from our previously published PBPK model. Radius of the tumor blood capillary ( Rcap ), average distance between two capillaries ( Rkrough ), tumor void volume for MMAE ( ε ), P, D, and efflux rate of MMAE from the cells ( kout ) were obtained from the literature. […]

[2] = tested on: tumor cells; conditions: cited from earlier work
Description: Table 1 A glossary of literature-derived and estimated parameters used for the MMAE PBPK model. | column: Value

[3] = cited from earlier work
Description: The PK profile of MMAE in plasma dropped rapidly, while concentrations in tissues were retained for a prolonged period of time. This could be because of the binding of MMAE to its intracellular target, tubulin. […] Since plasma and tissue concentration profiles were not parallel, plasma exposure ...

[4] = following free MMAE administration; cited from earlier work
Description: Our results regarding the blood cell distribution of MMAE were not consistent with the literature. The MMAE blood-to-plasma ratio is reported to be 2 [4] and 1.53–8.65 [8] in different studies, following free MMAE administration. Whereas, a lower blood-to-plasma ratio has been observed when MMAE-conjugated ADCs were administrated.

[5] = cited from earlier work; remark: listed apart in the source
Description: The PBPK model included 16 tissues and a tumor compartment, and all of them were connected via blood flow and arranged anatomically. The tissue compartments included blood, lung, heart, kidney, muscle, skin, liver, brain, adipose, thymus, bone, small intestine, large intestine, spleen, pancreas, and other (i.e., carcass). All the other tissues, except those mentioned, were lumped into the ‘other’ compartment. The arterial blood to each organ was delivered by the efferent blood supplied from the lung, which perfused to each organ and t ... || It is reported that the elimination (metabolism and excretion) of MMAE is mainly through CYP3A4-mediated metabolism, biliary/fecal excretion, or urinary excretion. About 80% of MMAE excretes via feces, and only 6% excretes via urine. Therefore, we assumed that MMAE was eliminated only via metabolism and biliary/fecal excretion from the liver. […] For the derivation of CLint based on in vitro data, the CLint, vitro were estimated using human hepatocyte (3 µL/min/10^6 cells) and human ...

[6] = tested on: P-glycoprotein; conditions: cited from earlier work
Description: Concentration data were not obtained for gastrointestinal tracts and thymus, and thus, an assumption was made when calculating KP values for these tissues based on the result of a quantitative whole-body autoradiography study of trastuzumab-vc-MMAE in rats. The study observed persistent MMAE radioactivity in tissues with rapidly dividing cells such as GI epithelia, bone marrow, spleen, and thymus. Accordingly, apparent KP in GI tracts and thymus were assumed to be the same as in spleen, and they were adjusted for the fractional cellular volume of each tissue. KP values were >1 in all tis ... || The PBPK model of MMAE presented here can further be used to assess drug–drug interactions of MMAE containing ADCs. In vivo and in vitro studies indicate that MMAE is a substrate of CYP3A and P-glycoprotein [34]. As such, the polymorphism of CYP3A and P-glycoprotein may affect the PK of MMAE, and consequently the efficacy and toxicity of MMAE-conjugated ADCs. As such, the MMAE PBPK model can serve as a tool to explore drug interactions of ADCs.

Compound: CC[C@H](C)[C@@H]([C@@H](CC(=O)N1CCC[C@H]1[C@H](OC)[C@@H](C)C(=O)N[C@H](C)[C@@H](O)c1ccccc1)OC)N(C)C(=O)[C@@H](NC(=O)[C@@H](NC)C(C)C)C(C)C [MMAE, Monomethyl auristatin E] (H-[NMeV]V[Dil][Dolaproine]-X1)
- CLint (liver intrinsic clearance) [1]: 137 (8.92) mL/h
- PSblood (permeability-surface area coefficient) ([1]; blood cells): 0.105 (12.6) mL/h
- PSbone (permeability-surface area coefficient) ([1]; bone): 0.568 (20.9) mL/h
- PSbrain (permeability-surface area coefficient) ([1]; brain): 0.00825 (40.4) mL/h
- PSfat (permeability-surface area coefficient) ([1]; fat): 0.588 (23.5) mL/h
- PSheart (permeability-surface area coefficient) ([1]; heart): 1.47 (17.1) mL/h
- PSkidney (permeability-surface area coefficient) ([1]; kidney): 14.2 (20.2) mL/h
- PSliver (permeability-surface area coefficient) ([1]; liver): 49.2 (48.4) mL/h
- PSlung (permeability-surface area coefficient) ([1]; lung): 2.47 (13.2) mL/h
- PSmuscle (permeability-surface area coefficient) ([1]; muscle): 3.16 (21.1) mL/h
- PSpancreas (permeability-surface area coefficient) ([1]; pancreas): 0.0657 (18.7) mL/h
- PSskin (permeability-surface area coefficient) ([1]; skin): 0.681 (30.6) mL/h
- PSspleen (permeability-surface area coefficient) ([1]; spleen): 0.457 (18.5) mL/h
- kout, first-order efflux rate of MMAE from intracellular to extracellular space [2]: 0.046 h⁻¹
- ε, tumor void volume for MMAE [2]: 0.44
- D, diffusion rate across the blood vessels ([2]; tumor): 0.0104 cm^2/h
- half-life of MMAE, reported value [3]: 5.7 h
- blood-to-plasma ratio [4]: 2
- excretion via feces [5]: About 80%
- excretion via urine [5]: 6%
- renal excretion [5]: < 10%
- substrate of P-glycoprotein [6]: substrate
